Assay results taken from ChEMBL document CHEMBL3112406, “Virtual screening and biochemical evaluation to identify new inhibitors of mammalian target of rapamycin (mTOR)” (Bioorg Med Chem Lett, 2014).

Target: Serine/threonine-protein kinase mTOR (Homo sapiens, UniProt P42345)
Experiment: Inhibition of mTOR (unknown origin) by KINOMEscan assay

Work on `c1ccc(-c2c(-c3ccccc3)n(Cc3ccco3)c3ncnc(NCCCn4ccnc4)c23)cc1` yielded an IC50 of 54.1 µM.
